According to patent US20260042762A1 (Kymera Therapeutics, Inc., priority 2018, published 2026):

biological target: T1, MerTK (Homo sapiens, UniProt Q12866); assay: MerTk degradation in Jurkat cells (Western blot); assay type: cell-based; settings: Jurkat, 4 h, 0.001-1 μM, 4 hour-incubation at 37° C., read-out: Jurkat Max % MerTK Degradation
T1 construct: endogenous in cells; host or cells: Jurkat cells
T1 sequence (Q12866 21-999): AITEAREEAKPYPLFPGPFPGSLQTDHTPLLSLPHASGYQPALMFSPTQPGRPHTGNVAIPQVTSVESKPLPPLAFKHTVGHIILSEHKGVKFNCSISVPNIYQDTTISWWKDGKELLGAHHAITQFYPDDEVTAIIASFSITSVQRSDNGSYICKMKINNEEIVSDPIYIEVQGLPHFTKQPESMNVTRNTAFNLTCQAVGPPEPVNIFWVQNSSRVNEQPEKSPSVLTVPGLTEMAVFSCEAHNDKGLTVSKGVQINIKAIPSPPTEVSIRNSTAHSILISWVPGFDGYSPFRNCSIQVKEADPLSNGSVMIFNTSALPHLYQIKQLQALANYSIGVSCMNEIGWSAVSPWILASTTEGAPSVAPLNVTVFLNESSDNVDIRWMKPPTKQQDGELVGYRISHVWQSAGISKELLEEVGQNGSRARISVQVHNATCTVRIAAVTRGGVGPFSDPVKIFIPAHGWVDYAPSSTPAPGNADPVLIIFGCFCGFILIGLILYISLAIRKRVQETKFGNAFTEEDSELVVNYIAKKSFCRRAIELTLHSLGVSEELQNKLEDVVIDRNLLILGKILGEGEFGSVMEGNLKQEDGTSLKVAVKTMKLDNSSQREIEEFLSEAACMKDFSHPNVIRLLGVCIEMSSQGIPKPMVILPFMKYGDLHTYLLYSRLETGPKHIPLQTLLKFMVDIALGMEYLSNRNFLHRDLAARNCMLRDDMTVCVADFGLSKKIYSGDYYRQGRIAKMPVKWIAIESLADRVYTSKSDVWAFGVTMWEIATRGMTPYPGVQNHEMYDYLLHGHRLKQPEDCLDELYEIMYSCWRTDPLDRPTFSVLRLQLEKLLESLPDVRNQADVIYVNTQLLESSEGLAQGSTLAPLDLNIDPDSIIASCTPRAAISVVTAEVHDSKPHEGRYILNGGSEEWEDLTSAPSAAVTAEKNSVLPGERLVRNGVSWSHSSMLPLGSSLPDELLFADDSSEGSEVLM
Method in brief: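 MerTK degradation was read by near-infrared Western blot, normalized to actin, in BCA-quantified lysates of Jurkat cells exposed to 0.001-1 μM compound for 4 h at 37 °C.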

SMILES	Dmax
Cn1c(=O)n([C@H]2CCC(=O)NC2=O)c2ccc(CCCOCCCOCCN3CCN(Cc4ccc(-c5cn([C@H]6CC[C@H](O)CC6)c6nc(NCCC7CC7)ncc56)cc4)CC3)cc21 [I-70, 3-(5-[3-[3-(2-[4-[(4-[2-[(2-cyclopropylethyl)amino]-7-[trans-4-hydroxycyclohexyl]-7H-pyrrolo[2,3-d]pyrimidin-5-yl]phenyl)methyl]piperazin-1-yl]ethoxy)propoxy]propy1]-3-methyl-2-oxo-2,3-dihydro-1H-1,3-benzodiazol-1-y1)piperidine-2,6-dione]	> 50%
CCCNc1ncc2c(-c3ccc(CN4CCN(CCOCCCOCCCc5ccc6c(c5)n(C)c(=O)n6[C@H]5CCC(=O)NC5=O)CC4)cc3)cn([C@H]3CC[C@H](O)CC3)c2n1 [I-71, 3-[3-methyl-2-oxo-5-[3-(3-[2-[4-([4-[2-(propylamino)-7-[trans-4-hydroxycyclohexyl]-7H-pyrrolo[2,3-d]pyrimidin-5-yl]phenyl]methyl)piperazin-1-yl]ethoxy]propoxy)propy1]-2,3-dihydro-1H-1,3-benzodiazol-1-yl]piperidine-2,6-dione]	> 50%
Cn1c(=O)n([C@H]2CCC(=O)NC2=O)c2ccc(CCCOCCCOCCN3CCN(Cc4ccc(-c5cn([C@H]6CC[C@H](O)CC6)c6nc(NCC7CC7)ncc56)cc4)CC3)cc21 [I-72, 3-(5-[3-[3-(2-[4-[(4-[2-[(cyclopropylmethyl)amino]-7-[trans-4-hydroxycyclohexy1]-7H-pyrrolo[2,3-d]pyrimidin-5-yl]phenyl)methyl]piperazin-1-yl]ethoxy)propoxy]propy1]-3-methyl-2-oxo-2,3-dihydro-1H-1,3-benzodiazol-1-yl)piperidine-2,6-dione; formic acid]	> 50%
Cn1c(=O)n([C@H]2CCC(=O)NC2=O)c2ccc(CCCOCCCN3CCN(Cc4ccc(-c5cn([C@H]6CC[C@H](O)CC6)c6nc(NCCC(F)(F)F)ncc56)cc4)CC3)cc21 [I-73, 3-[3-methyl-2-oxo-5-[3-(3-[4-[(4-[7-[trans-4-hydroxycyclohexyl]-2-[(3,3,3-trifluoropropyl)amino]-7H-pyrrolo[2,3-d]pyrimidin-5-yl]phenyl)methyl]piperazin-1-yl]propoxy)propyl]-2,3-dihydro-1H-1,3-benzodiazol-1-yl]piperidine-2,6-dione; formic acid]	> 50%
Cn1c(=O)n([C@H]2CCC(=O)NC2=O)c2ccc(CCCOCCCCN3CCN(Cc4ccc(-c5cn([C@H]6CC[C@H](O)CC6)c6nc(NCCC(F)(F)F)ncc56)cc4)CC3)cc21 [I-79, 3-[3-methyl-2-oxo-5-[3-(4-[4-[(4-[7-[trans-4-hydroxycyclohexyl]-2-[(3,3,3-trifluoropropyl)amino]-7H-pyrrolo[2,3-d]pyrimidin-5-yl]phenyl)methyl]piperazin-1-yl]butoxy)propyl]-2,3-dihydro-1H-1,3-benzodiazol-1-yl]piperidine-2,6-dione; formic acid]	> 50%
CC(c1ccc(-c2cn([C@H]3CC[C@H](O)CC3)c3nc(NCCC(F)(F)F)ncc23)cc1)N1CCN(CCCCOCCCc2ccc3c(c2)n(C)c(=O)n3C2CCC(=O)NC2=O)CC1 (stereo partly drawn) [I-81, 3-[3-methyl-2-oxo-5-[3-(4-[4-[1-(4-[7-[trans-4-hydroxycyclohexyl]-2-[(3,3,3-trifluoropropyl)amino]-7H-pyrrolo[2,3-d]pyrimidin-5-yl]phenyl)ethyl]piperazin-1-y1]butoxy)propyl]-2,3-dihydro-1H-1,3-benzodiazol-1-yl]piperidine-2,6-dione]	> 50%

Other lines, results leading:

Dmax	SMILES
> 50%	CCCCNc1ncc2c(-c3ccc(CN4CCN(CCCOCCCc5ccc6c(c5)n(C)c(=O)n6[C@H]5CCC(=O)NC5=O)CC4)cc3)cn(C3CCCCC3)c2n1 [I-74, 3-[5-(3-[3-[4-([4-[2-(butylamino)-7-cyclohexyl-7H-pyrrolo[2,3-d]pyrimidin-5-yl]phenyl]methyl)piperazin-1-yl]propoxy]propyl)-3-methyl-2-oxo-2,3-dihydro-1H-1,3-benzodiazol-1-yl]piperidine-2,6-dione]
> 50%	CCCCNc1ncc2c(-c3ccc(C(C)N4CCN(CCCOCCCc5ccc6c(c5)n(C)c(=O)n6C5CCC(=O)NC5=O)CC4)cc3)cn([C@H]3CC[C@H](O)CC3)c2n1 (stereo partly drawn) [I-75, 3-[5-(3-[3-[4-(1-[4-[2-(butylamino)-7-[trans-4-hydroxycyclohexy1]-7H-pyrrolo[2,3-d]pyrimidin-5-yl]phenyl]ethyl)piperazin-1-yl]propoxy]propyl)-3-methyl-2-oxo-2,3-dihydro-1H-1,3-benzodiazol-1-yl]piperidine-2,6-dione; formic acid]
> 50%	CCCCNc1ncc2c(-c3ccc(CN4CCN(CCOCCOCCOCCOCCCc5ccc6c(c5)n(C)c(=O)n6[C@H]5CCC(=O)NC5=O)CC4)nn3)cn([C@H]3CC[C@H](O)CC3)c2n1 [I-76, 3-(5-[1-[4-([6-[2-(butylamino)-7-[trans-4-hydroxycyclohexyl]-7H-pyrrolo[2,3-d]pyrimidin-5-y1]pyridazin-3-y1]methyl)piperazin-1-y1]-3,6,9,12-tetraoxapentadecan-15-y1]-3-methyl-2-oxo-2,3-dihydro-1H-1,3-benzodiazol-1-y1)piperidine-2,6-dione; formic acid]
> 50%	Cn1c(=O)n([C@H]2CCC(=O)NC2=O)c2ccc(CCCOCCCOCCN3CCN(Cc4ccc(-c5cn([C@H]6CC[C@H](O)CC6)c6nc(NCCC(F)(F)F)ncc56)cc4)CC3)cc21 [I-78, 3-(3-methyl-2-oxo-5-[3-[3-(2-[4-[(4-[7-[trans-4-hydroxycyclohexyl]-2-[(3,3,3-trifluoropropyl)amino]-7H-pyrrolo[2,3-d]pyrimidin-5-yl]phenyl)methyl]piperazin-1-yl]ethoxy)propoxy]propy1]-2,3-dihydro-1H-1,3-benzodiazol-1-yl)piperidine-2,6-dione; formic acid]
> 50%	CC(c1ccc(-c2cn([C@H]3CC[C@H](O)CC3)c3nc(NCCC(F)(F)F)ncc23)cc1)N1CCN(CCCOCCCc2ccc3c(c2)n(C)c(=O)n3C2CCC(=O)NC2=O)CC1 (stereo partly drawn) [I-80, 3-[3-methyl-2-oxo-5-[3-(3-[4-[1-(4-[7-[trans-4-hydroxycyclohexyl]-2-[(3,3,3-trifluoropropyl)amino]-7H-pyrrolo[2,3-d]pyrimidin-5-yl]phenyl)ethyl]piperazin-1-yl]propoxy)propyl]-2,3-dihydro-1H-1,3-benzodiazol-1-yl]piperidine-2,6-dione]
> 50%	Cn1c(=O)n([C@H]2CCC(=O)NC2=O)c2ccc(C#CCOCCOCCN3CCN(Cc4ccc(-c5cn([C@H]6CC[C@H](O)CC6)c6nc(NCCC(F)(F)F)ncc56)cc4)CC3)cc21 [I-82, 3-(3-methyl-2-oxo-5-[3-[2-(2-[4-[(4-[7-[trans-4-hydroxycyclohexy1]-2-[(3,3,3-trifluoropropyl)amino]-7H-pyrrolo[2,3-d]pyrimidin-5-yl]phenyl)methyl]piperazin-1-yl]ethoxy)ethoxy]prop-1-yn-1-yl]-2,3-dihydro-1H-1,3-benzodiazol-1-yl)piperidine-2,6-dione]
> 50%	Cn1c(=O)n([C@H]2CCC(=O)NC2=O)c2ccc(CCCOCCCN3CCN(Cc4ccc(-c5cn(C6CCCCC6)c6nc(NCCC(F)(F)F)ncc56)cc4)CC3)cc21 [I-83, 3-[5-[3-(3-[4-[(4-[7-cyclohexyl-2-[(3,3,3-trifluoropropyl)amino]-7H-pyrrolo[2,3-d]pyrimidin-5-yl]phenyl)methyl]piperazin-1-yl]propoxy)propyl]-3-methyl-2-oxo-2,3-dihydro-1H-1,3-benzodiazol-1-yl]piperidine-2,6-dione;]
